# Experiments:
# Assay type in all cases: cell-based, mouse
# neural stem cells = test: BrdU incorporation assay (mitotic index); settings: 4 hrs incubation
# Experimental: For the BrdU incorporation assay, the cultures were incubated for 4 hrs in BrdU (Sigma, 10 μg/ml, 4 hrs), fixed and stained with rat monoclonal anti-BrdU (MAS250C, Harlan Sera-lab, Loughborough, UK; 1:200) and Cy3-conjugated goat anti-rat antibodies (Jackson ImmunoResearch, 1:300). Nuclei were visualized by Sytox (Molecular Probes, Inc.), and the mitotic index was calculated as the ratio of BrdU/Sytox positive nuclei. Limiting dilution analysis was performed as previously described (Keyoung et al., Nature Biotechnology 19:843-850 (2001); Uchida et al., Proc. Natl. Acad. Sci. 97:14720-14725 (2000), which are hereby incorporated by reference in their entirety).
# Purinergic signaling has long-term effects on proliferation of numerous cell types, including rapidly replicating transformed cell lines (Burnstock, G., Arterioscler Thromb Vasc Biol 22:364-73 (2002); Michoud et al., Am J Respir Cell Mol Biol 27:732-8 (2002); Sauer et al., J Cell Sci 115:3265-73 (2002); Tu et al., Br J Pharmacol 129:1481-9 (2000), which are hereby incorporated by reference in their entirety). To better define the mitogenic effects of P2Y on neural progenitor cells, the mitogenic effects of ATP, its analogs, and its dephosphorylated metabolites were compared. To this end, BrdU incorporation by neural stem cells was quantified after 4 hrs incubation in each treatment.
# neural progenitor cells = test: Calcium imaging (fluo-4/am) of Ca2+i responses in 1-2 day cultures; settings: for increase of Ca2+i by purine receptor agonists: 1-2 day cultures; for effect of removal of extracellular Ca2+ on the Ca2+ response to the agonist: extracellular Ca2+ removed
# Experimental: Neuronal cultures were prepared from E16 mice and maintained as earlier described (Nedergaard, M., Science 263:1768-1771 (1994), which is hereby incorporated by reference in its entirety). Cytosine arabinoside (20 μM) was added at 48 hr to eliminate proliferating cells. Neural progenitor cells were isolated from E13 mice as previously described (Morshead et al., Neuron 13:1071-82 (1994); Reynolds et al., Science 255:1707-10 (1992), which are hereby incorporated by reference in their entirety). The forebrains were collected in a Ca/Mg-free Hank's buffered saline solution (HBSS) and dissociated in 0.25% trypsin. The cells were resuspended at 4×10^6 cells/ml in DMEM/F12/N2 containing 10 ng/ml bFGF and 10 ng/ml EGF (Sigma, St. Louis, Mo.). The cells were plated at 4 ml/dish into 100 mm suspension culture plates and incubated at 37° C. in 5% CO2. The cells were passaged 2 to 3 times before use.
# To test the idea that purinergic signaling is restricted to undifferentiated neural precursor cells, Ca^2+ responses to ATP were first examined as a function of time after plating either neural stem cells or differentiated neurons. Cultured mouse cortical neurons in near-pure neuronal cultures were loaded with fluo-4/am and exposed to either ATP (100 μM) or K^+ (60 mM). […] The responses to ATP fell by day 3 and were absent 9 days after plating. […] By 30 hours after plating, MAP2-defined neurons expressed substantially less P2Y receptor-immunoreactivity than did neighboring, MAP2^− cells (FIG. 1C). By 5 days, P2Y-immunoreactivity was restricted to GFAP^+ astrocytes.
# ATP-induced Ca^2+i increments were inhibited by both suramin (100 μM) and reactive blue (RB; 30 μM), two mechanistically-unrelated inhibitors of purinergic signaling (FIG. 1D).
# [1] = tested on: neuroepithelial cells / neural spheres; test: ATP release, luciferin-luciferase bioluminescence
# Experimental: ATP release from living cells were dynamically imaged by chemiluminescence as described in (Arcuino et al., Proc Natl Acad Sci USA 99:9840-5 (2002), which is hereby incorporated by reference in its entirety). Neural spheres were after a light spin resuspended in Ringer's solution and mounted in a temperature controlled Leiden chamber. Luciferase (0.132 mg/ml) and luciferin (0.332 mg/ml) was added to the Ringer solution. After obtaining a baseline recording of 5 minutes duration, the cultures were stimulated by adding an equal volume of Ca^2+-free Ringer solution containing 100 μM UTP. Light production from the luciferin-luciferase reaction was imaged by a liquid nitrogen-cooled CCD camera (VersArray 1300B, Princeton Instruments), using a 20× oil lens (N.A. 0.8, Olympus), 8×8 binning, and two seconds integration. ATP content in samples collected from cultures grown in 24-well tissue culture plates was measured using a Victor2 plate reader (Wallac) (Cotrina et al., Proc. Natl. Acad. Sci. 95:15735-15740 (1998), which is hereby incorporated by reference in its entirety) and normalized to the protein content (BioRad) or to the cell number. A minimum of 8 independent experiments was evaluated (n≧8, most >20). When drugs or serum were used, the standards were adjusted to containing an equivalent amount. […]
compound,measurement,setting,value
"Nc1nc(Cl)nc2c1ncn2[C@@H]1O[C@H](COP(=O)(O)OP(=O)(O)OP(=O)(O)O)[C@@H](O)[C@H]1O [2-Cl-ATP, 2-chloro-adenosine triphosphate]",proliferation (BrdU incorporation),neural stem cells,comparable effects
same,increase of Ca2+i by purine receptor agonists,neural progenitor cells,increased Ca^2+i with roughly equal potency
"CSc1nc(N)c2ncn([C@@H]3O[C@H](COP(=O)(O)OP(=O)(O)OP(=O)(O)O)[C@@H](O)[C@H]3O)c2n1 [2-MeSATP, 2-methylthio-adenosine triphosphate]",increase of Ca2+i by purine receptor agonists,neural progenitor cells,increased Ca^2+i with roughly equal potency
same,effect of removal of extracellular Ca2+ on the Ca2+ response to the agonist,neural progenitor cells,did not significantly decrease
"Nc1ncnc2c1ncn2[C@@H]1O[C@H](COP(=O)(O)OP(=O)(O)O)[C@@H](O)[C@H]1O [ADP, adenosine diphosphate]",proliferation (BrdU incorporation),neural stem cells,comparable effects
same,increase of Ca2+i by purine receptor agonists,neural progenitor cells,increased Ca^2+i with roughly equal potency
"Nc1ncnc2c1ncn2[C@@H]1O[C@H](COP(=O)(O)CP(=O)(O)O)[C@@H](O)[C@H]1O [AMPCP, α,β-methyl adenosine diphosphate]",proliferation (BrdU incorporation),neural stem cells,potently enhanced
"Nc1ncnc2c1ncn2[C@@H]1O[C@H](COP(=O)(O)OP(=O)(O)OP(=O)(O)O)[C@@H](O)[C@H]1O [ATP, adenosine triphosphate]",concentration at which proliferation peaked,neural stem cells,100 µM
same,proliferation (BrdU incorporation),neural stem cells,increased proliferation in a dose-dependent manner
same,Ca2+ response,"neural progenitor cells; 100 μM, cultures younger than 2 days in vitro",Transient increments in Ca^2+ were triggered
same,increase of Ca2+i by purine receptor agonists,neural progenitor cells,increased Ca^2+i with roughly equal potency
same,effect of removal of extracellular Ca2+ on the Ca2+ response to the agonist,neural progenitor cells,did not significantly decrease
CCNC(=O)[C@H]1O[C@@H](n2cnc3c(N)ncnc32)[C@H](O)[C@@H]1O [NECA],proliferation (BrdU incorporation),neural stem cells,failed to stimulate proliferation
"O=c1ccn([C@@H]2O[C@H](COP(=O)(O)OP(=O)(O)OP(=O)(O)O)[C@@H](O)[C@H]2O)c(=O)[nH]1 [UTP, uridine triphosphate]",proliferation (BrdU incorporation),neural stem cells,comparable effects
same,"ATP release from neural spheres, bioluminescence imaging","[1]; 100 μM, neural spheres",frequent point-source bursts of light emission
same,ATP release evoked by purine receptor activation,"[1]; neuroepithelial cells, first 2 days in vitro",evoked robust ATP release
same,increase of Ca2+i by purine receptor agonists,neural progenitor cells,increased Ca^2+i with roughly equal potency
Nc1ncnc2c1ncn2[C@@H]1O[C@H](CO)[C@@H](O)[C@H]1O [adenosine],proliferation (BrdU incorporation),neural stem cells,failed to stimulate proliferation
"Nc1ncnc2c1ncn2[C@@H](C=O)O[C@@H](C=O)COP(=O)(O)OP(=O)(O)OP(=O)(O)O [oxidized ATP, periodate oxidized adenosine 5′-triphosphate]",reduction of ATP-evoked Ca2+ responses,"neural progenitor cells; 300 μM, 1 hr, p=0.4, Student's t test",did not significantly reduce
Nc1ncnc2c1ncn2[C@@H]1O[C@H](COP(=O)(O)CP(=O)(O)OP(=O)(O)O)[C@@H](O)[C@H]1O [αβATP],increase of Ca2+i by purine receptor agonists,neural progenitor cells,failed to evoke Ca^2+ responses
"Nc1ncnc2c1ncn2[C@@H]1O[C@H](COP(=O)(O)OP(=O)(O)OP(O)(O)=S)[C@@H](O)[C@H]1O [γSATP, γ-thio-adenosine triphosphate]",proliferation (BrdU incorporation),neural stem cells,comparable effects
same,increase of Ca2+i by purine receptor agonists,neural progenitor cells,increased Ca^2+i with roughly equal potency
apyrase,proliferation (BrdU incorporation),neural stem cells,inhibited proliferation

# — patent publication US7829332B2, “Purines are self-renewal signals for neural stem cells, and purine receptor antagonists promote neuronal and glial differentiation therefrom” (Cornell Research Foundation, Inc., priority 2004, dated 2010)
